# Results published in US7713970B2, “Substituted cyclic urea derivatives” (FMC Corporation, priority 2004, dated 2010).
# Tested on: tobacco budworm (Heliothis virescens [Fabricius])
# Assay: surface-treated diet test against tobacco budworm
# Type: in vivo
# Settings: 0.25 millimolar candidate insecticide on the surface of the diet, second instar larvae, five-day exposure; for Percent Mortality: compared to total number of insects infested; for Percent Growth Inhibition: inhibition of insect weight relative to untreated controls
# Method: Candidate insecticides were evaluated for activity against the tobacco budworm (Heliothis virescens [Fabricius]) in a surface-treated diet test.
# In this test one mL of molten (65-70° C.) wheat germ-based artificial diet was pipetted into each well of a four by six (24 well) multi-well plate (ID# 430345-15.5 mm dia.×17.6 mm deep; Corning Costar Corp., One Alewife Center, Cambridge, Mass. 02140). The diet was allowed to cool to ambient temperature before treatment with candidate insecticide.
# For a determination of insecticidal activity, solutions of the candidate insecticides were prepared for testing using a Packard 204DT Multiprobe® Robotic System (Packard Instrument Company, 800 Research Parkway, Meriden, Conn. 06450), in which the robot first diluted a standard 50 millimolar DMSO solution of candidate insecticide with a 1:1 water/acetone solution (V/V) in a ratio of 1:7 stock solution to water/acetone. The robot subsequently pipetted 40 microliters of the so-prepared solution onto the surface of the diet in each of three wells in the 24 multi-well plate. The process was repeated with solutions of seven other candidate insecticides. Once treated, the contents of the multi-well plate were allowed to dry, leaving 0.25 millimoles of candidate insecticide on the surface of the diet, or a concentration of 0.25 millimolar. Appropriate untreated controls containing only DMSO on the diet surface were also included in this test.
# For evaluations of the insecticidal activity of a candidate insecticide at varying rates of application, the test was established as described above using sub-multiples of the standard 50 millimolar DMSO solution of candidate insecticide. For example, the standard 50 millimolar solution was diluted by the robot with DMSO to give 5, 0.5, 0.05, 0.005, 0.0005 millimolar, or more dilute solutions of the candidate insecticide. In these evaluations there were six replicates of each rate of application placed on the surface of the diet in the 24 multi-well plate, for a total of four rates of application of candidate insecticide in each plate.
# In each well of the test plate was placed one second instar tobacco budworm larvea, each weighing approximately five milligrams. After the larvae were placed in each well, the plate was sealed with clear polyfilm adhesive tape. The tape over each well was perforated to ensure an adequate air supply. The plates were then held in a growth chamber at 25° C. and 60% relative humidity for five days (light 14 hours/day).
# After the five-day exposure period insecticidal activity for each rate of application of candidate insecticide was assessed as percent inhibition of insect weight relative to the weight of insects from untreated controls, and percent mortality when compared to the total number of insects infested.
SMILES,Percent Mortality,Percent Growth Inhibition
O=c1n(CCCCOc2c(Cl)cc(OCC=C(Cl)Cl)cc2Cl)ccn1-c1ccc(Cl)cc1 [Compound 4],100%,100%
O=c1n(-c2ccc(Cl)cc2)cnn1CCCCOc1c(Cl)cc(OCC=C(Cl)Cl)cc1Cl [Compound 41],100%,100%
O=c1n(CCCCOc2c(Cl)cc(OCC=C(Cl)Cl)cc2Cl)cnn1-c1cccc(Cl)c1 [Compound 75],100%,100%
O=c1n(CCCCOc2c(Cl)cc(OCC=C(Cl)Cl)cc2Cl)cnn1-c1cccc(Cl)c1Cl [Compound 76],100%,100%
O=c1n(CCCCOc2c(Cl)cc(OCC=C(Cl)Cl)cc2Cl)cnn1-c1ccc(Cl)c(Cl)c1 [Compound 80],100%,100%
O=c1n(CCCCOc2c(Cl)cc(OCC=C(Cl)Cl)cc2Cl)cnn1-c1cc(Cl)cc(Cl)c1 [Compound 81],100%,100%
CC(C)(C)c1ccc(-n2ncn(CCCCOc3c(Cl)cc(OCC=C(Cl)Cl)cc3Cl)c2=O)cc1 [Compound 83],100%,100%
Cc1ccc(-n2ncn(CCCCOc3c(Cl)cc(OCC=C(Cl)Cl)cc3Cl)c2=O)cc1 [Compound 86],100%,100%
O=c1n(CCCCOc2c(Cl)cc(OCC=C(Cl)Cl)cc2Cl)cnn1-c1cc(F)cc(F)c1 [Compound 87],100%,100%
Cc1cc(-n2ncn(CCCCOc3c(Cl)cc(OCC=C(Cl)Cl)cc3Cl)c2=O)ccc1Cl [Compound 88],100%,100%
N#Cc1ccc(-n2ncn(CCCCOc3c(Cl)cc(OCC=C(Cl)Cl)cc3Cl)c2=O)cc1 [Compound 89],100%,100%
O=c1n(CCCCOc2c(Cl)cc(OCC=C(Cl)Cl)cc2Cl)cnn1-c1ccc(I)cc1 [Compound 90],100%,100%
O=c1n(CCCCOc2c(Cl)cc(OCC=C(Cl)Cl)cc2Cl)cnn1-c1ccc(Cl)cc1 [Compound 91],100%,100%
O=c1n(CCCCOc2c(Cl)cc(OCC=C(Cl)Cl)cc2Cl)cnn1-c1ccccc1Cl [Compound 92],100%,100%
O=c1n(CCCCOc2c(Cl)cc(OCC=C(Cl)Cl)cc2Cl)cnn1-c1ccc([N+](=O)[O-])cc1 [Compound 93],100%,100%
O=c1n(CCCCOc2c(Cl)cc(OCC=C(Cl)Cl)cc2Cl)cnn1-c1ccccc1 [Compound 94],100%,100%
O=c1n(CCCCOc2c(Cl)cc(OCC=C(Cl)Cl)cc2Cl)cnn1-c1ccc(OC(F)(F)F)cc1 [Compound 97],100%,100%
Cc1ccc(-n2ncn(CCCCOc3c(Cl)cc(OCC=C(Cl)Cl)cc3Cl)c2=O)cc1C [Compound 99],100%,100%
Cc1cc(C)cc(-n2ncn(CCCCOc3c(Cl)cc(OCC=C(Cl)Cl)cc3Cl)c2=O)c1 [Compound 100],100%,100%
Cc1ccc(-n2ncn(CCCCOc3c(Cl)cc(OCC=C(Cl)Cl)cc3Cl)c2=O)cc1Cl [Compound 101],100%,100%

SMILES,Percent Mortality,Percent Growth Inhibition
O=c1n(CCCCOc2c(Cl)cc(OCC=C(Cl)Cl)cc2Cl)cnn1-c1ccc(Br)cc1 [Compound 104],100%,100%
O=c1n(CCOc2c(Cl)cc(OCC=C(Cl)Cl)cc2Cl)cnn1-c1ccc(C(F)(F)F)cc1 [Compound 105],100%,100%
O=c1n(CCCOc2c(Cl)cc(OCC=C(Cl)Cl)cc2Cl)cnn1-c1ccc(C(F)(F)F)cc1 [Compound 106],100%,100%
"O=c1n(CCCCOc2c(Cl)cc(OCC=C(Cl)Cl)cc2Cl)cnn1-c1ccc(C(F)(F)F)cc1 [Compound 107, 4-{4-[4-(3,3-Dichloroprop-2-enyloxy)-2,6-dichlorophenoxy]butyl}-1-[4-(trifluoromethyl)-phenyl]-1,2,4-triazolin-5-one]",100%,100%
Cc1nn(-c2ccccc2)c(=O)n1CCCCOc1c(Cl)cc(OCC=C(Cl)Cl)cc1Cl [Compound 110],100%,100%
Cc1nn(-c2ccc(Cl)cc2)c(=O)n1CCCCOc1c(Cl)cc(OCC=C(Cl)Cl)cc1Cl [Compound 113],100%,100%
Cc1nn(-c2ccccc2F)c(=O)n1CCCCOc1c(Cl)cc(OCC=C(Cl)Cl)cc1Cl [Compound 114],100%,100%
Cc1nn(-c2ccc(Cl)cc2Cl)c(=O)n1CCCCOc1c(Cl)cc(OCC=C(Cl)Cl)cc1Cl [Compound 118],100%,100%
Cc1nn(-c2ccc(Cl)cc2F)c(=O)n1CCCCOc1c(Cl)cc(OCC=C(Cl)Cl)cc1Cl [Compound 123],100%,100%
Cc1nn(-c2ccc(C(C)(C)C)cc2)c(=O)n1CCCCOc1c(Cl)cc(OCC=C(Cl)Cl)cc1Cl [Compound 125],100%,100%
Cc1nn(-c2ccc(C(F)(F)F)cc2)c(=O)n1CCCCOc1c(Cl)cc(OCC=C(Cl)Cl)cc1Cl [Compound 131],100%,100%
Cc1nn(-c2ccc(S(=O)(=O)C(F)F)cc2)c(=O)n1CCCCOc1c(Cl)cc(OCC=C(Cl)Cl)cc1Cl [Compound 135],100%,100%
CC(C)(C)c1ccc(-n2nnn(CCCCOc3c(Cl)cc(OCC=C(Cl)Cl)cc3Cl)c2=O)cc1 [Compound 291],100%,100%
O=c1n(CCCCOc2c(Cl)cc(OCC=C(Cl)Cl)cc2Cl)nnn1-c1ccc(C(F)(F)F)cc1 [Compound 293],100%,100%
O=c1n(CCCCOc2c(Cl)cc(OCC=C(Cl)Cl)cc2Cl)nnn1-c1cc(Cl)cc(Cl)c1 [Compound 299],100%,100%
O=c1n(CCCCOc2c(Cl)cc(OCC=C(Cl)Cl)cc2Cl)nnn1-c1ccc(Cl)cc1 [Compound 300],100%,100%
O=c1n(CCCCOc2c(Cl)cc(OCC=C(Cl)Cl)cc2Cl)nnn1-c1ccc(OC(F)(F)F)cc1 [Compound 303],100%,100%
O=c1n(CCCCOc2c(Cl)cc(OCC=C(Cl)Cl)cc2Cl)nnn1-c1cccc(C(F)(F)F)c1 [Compound 304],100%,100%
O=c1n(CCCCOc2c(Cl)cc(OCC=C(Cl)Cl)cc2Cl)nnn1-c1ccc(Cl)c(Cl)c1 [Compound 306],100%,100%
O=c1n(CCCCOc2c(Cl)cc(OCC=C(Cl)Cl)cc2Cl)nnn1-c1ccccc1 [Compound 307],100%,100%
